{"source": "patent US20060153936A1", "about": "“Flavonoid solubilizing agent and method of solubilizing flavonoid” (priority 2003, published 2006)", "key": {"[1]": {"assay": "Isoflavone dissolution amount by HPLC with malonyl daidzin (Example 6)", "assay_type": "physicochemical", "conditions": "for dissolution amount of malonyl daidzin itself: share of malonyl daidzin in the isoflavone amount of the supernatant, 10° C.", "description": "(§1) Ultrapure water 1 mL was added to a commercially available soybean isoflavone (trade name “Honen Isoflavone-80”, manufactured by Honen Corporation) 12.5 mg (10 mg of isoflavone glycoside) and a commercially available malonyl isoflavone glycoside, malonyl daidzin (purity: 90% or more, manufactured by Wako Pure Chemicals, Co., Ltd.) 1 mg, and the mixture was stirred at 25° C. for one hour. Then, after it was equilibrated at 10° C. for 48 hours, the supernatant was collected by centrifugation and an isoflavone dissolution amount was measured by HPLC. Further, the supernatant was placed in a test tube, it was stored as such at 10° C. for one month to observe the formation of a precipitate by visual examination."}, "[2]": {"assay_type": "physicochemical", "description": "as §1"}, "[3]": {"assay": "Storage stability of naringin supernatant at 10° C., visual examination (Example 4)", "assay_type": "physicochemical", "conditions": "naringin supernatant without additive, 95° C. 15 minutes, stored 10° C. one month", "description": "(§2) Further, the supernatant was placed in a test tube, and after it was pasteurized by heating at 95° C. for 15 minutes, it was stored at 10° C. for one month to observe the formation of a precipitate by visual examination."}, "[4]": {"assay": "Naringin dissolution amount with solubilizing agent (Example 4)", "assay_type": "physicochemical", "conditions": "without additive; naringin 100 mg in ultrapure water 10 mL; 80° C. one hour, equilibrated 10° C. 48 hours", "description": "Ultrapure water 10 mL was added to commercially available naringin (flavanones, purity: 95% or more, manufactured by Sigma Inc.) 100 mg and the same solubilizing agent as that used in Example 1, and the mixture was stirred at 80° C. for one hour. Then, after it was equilibrated at 10° C. for 48 hours, the supernatant was collected by centrifugation. The OD254 in the supernatant was measured and a naringin dissolution amount was calculated by the following equation 4. naringin dissolution amount (mg/100 mL)=(OD254 in sample supernatant−OD254 in control supernatant)/naringin specific absorbance×1000"}, "[5]": {"assay": "Storage stability of rutin supernatant at 10° C., visual examination (Example 2)", "assay_type": "physicochemical", "conditions": "rutin supernatant without additive, 95° C. 15 minutes, stored 10° C. one month", "description": "Further, the supernatant was placed in a test tube, after it was pasteurized by heating at 95° C. for 15 minutes, it was stored at 10° C. for one month to observe the formation of a precipitate by visual examination."}, "[6]": {"assay": "Hesperidin dissolution amount with solubilizing agent (Example 3)", "assay_type": "physicochemical", "conditions": "without additive; hesperidin 100 mg in ultrapure water 10 mL; 80° C. one hour, equilibrated 10° C. 48 hours", "description": "Then, after it was equilibrated at 10° C. for 48 hours, the supernatant was collected by centrifugation. The OD254 of the supernatant was measured and a hesperidin dissolution amount was calculated by the following equation 3. hesperidin dissolution amount (mg/100 mL)=(OD254 in sample supernatant−OD254 in control supernatant)/hesperidin specific absorbance×1000"}, "[7]": {"assay": "Storage stability of hesperidin supernatant at 10° C., visual examination (Example 3)", "assay_type": "physicochemical", "conditions": "hesperidin supernatant without additive, 95° C. 15 minutes, stored 10° C. one month", "description": "as §2"}, "[8]": {"assay": "Storage stability of baicalin supernatant at 10° C., visual examination (Example 1)", "assay_type": "physicochemical", "conditions": "baicalin supernatant without additive, 95° C. 15 minutes, stored 10° C. one month", "description": "Further, the supernatant was placed in a test tube and, after it was pasteurized by heating at 95° C. for 15 minutes, it was stored at 10° C. for one month to observe the formation of a precipitate by visual examination."}, "[9]": {"assay": "Baicalin dissolution amount with solubilizing agent (Example 1)", "assay_type": "physicochemical", "conditions": "without additive; baicalin 100 mg in ultrapure water 10 mL; 80° C. one hour, equilibrated 10° C. 48 hours", "description": "Then, after the mixture was equilibrated at 10° C. for 48 hours, the supernatant was collected by centrifugation. The OD254 of the supernatant was measured and the dissolution amount of baicalin was calculated by the following equation 1. baicalin dissolution amount (mg/100 mL)=(OD254 in sample supernatant−OD254 in control supernatant)/baicalin specific absorbance×1000"}}, "note": "Where two headings read alike, the source gives them in different places.", "data": [{"compound": "O=C(O)CC(=O)OC[C@H]1O[C@@H](Oc2ccc3c(=O)c(-c4ccc(O)cc4)coc3c2)[C@H](O)[C@@H](O)[C@@H]1O", "note": "[Malonyl daidzin, malonyl daidzin]", "values": [{"measurement": "Isoflavone amount", "setting": "[1]; Honen Isoflavone-80 12.5 mg + malonyl daidzin 1 mg in ultrapure water 1 mL, 25° C. one hour, equilibrated 10° C. 48 hours, HPLC, total including malonyl daidzin", "result": 106.3, "unit": "mg/100 mL"}, {"measurement": "solubilizing magnifying power of the isoflavone glycoside", "setting": "[1]; in the co-presence of malonyl daidzin, malonyl daidzin's own amount deducted", "result": 2.9, "unit": "fold"}, {"measurement": "dissolution amount of malonyl daidzin itself", "setting": "[1]; HPLC", "result": "(including 56.9 of mg/100 mL"}, {"measurement": "dissolution amount of malonyl daidzin itself", "setting": "[1]; HPLC, listed as malonyl daidzin", "result": 56.9, "unit": "mg/100 mL"}, {"measurement": "Storage stability (10° C.)", "setting": "[2]", "result": "No precipitate"}]}, {"compound": "C[C@@H]1O[C@@H](O[C@H]2[C@H](Oc3cc(O)c4c(c3)O[C@H](c3ccc(O)cc3)CC4=O)O[C@H](CO)[C@@H](O)[C@@H]2O)[C@H](O)[C@H](O)[C@H]1O", "note": "[Naringin, naringin]", "values": [{"measurement": "Storage stability (10° C.)", "setting": "[3]", "result": "precipitate"}, {"measurement": "Naringin dissolution amount", "setting": "[4]", "result": 68.0, "unit": "mg/100 mL"}]}, {"compound": "C[C@@H]1O[C@@H](OC[C@H]2O[C@@H](Oc3c(-c4ccc(O)c(O)c4)oc4cc(O)cc(O)c4c3=O)[C@H](O)[C@@H](O)[C@@H]2O)[C@H](O)[C@H](O)[C@H]1O", "note": "[Rutin, rutin]", "values": [{"measurement": "Storage stability (10° C.)", "setting": "[5]", "result": "precipitate"}]}, {"compound": "COc1ccc([C@@H]2CC(=O)c3c(O)cc(O[C@@H]4O[C@H](CO[C@@H]5O[C@@H](C)[C@H](O)[C@@H](O)[C@H]5O)[C@@H](O)[C@H](O)[C@H]4O)cc3O2)cc1O", "note": "[Hesperidin, hesperidin]", "values": [{"measurement": "Hesperidin dissolution amount", "setting": "[6]", "result": 8.6, "unit": "mg/100 mL"}, {"measurement": "Storage stability (10° C.)", "setting": "[7]", "result": "precipitate"}]}, {"compound": "O=C(O)[C@H]1O[C@@H](Oc2cc3oc(-c4ccccc4)cc(=O)c3c(O)c2O)[C@H](O)[C@@H](O)[C@@H]1O", "note": "[Baicalin, baicalin]", "values": [{"measurement": "Storage stability (10° C.)", "setting": "[8]", "result": "precipitate"}, {"measurement": "Baicalin dissolution amount", "setting": "[9]", "result": 12.4, "unit": "mg/100 mL"}]}]}
